For 41 compounds, EC50 results are on record in US11440909B2, “10H-phenothiazine ferroptosis inhibitor as well as the preparative method and the use thereof” (CHENGDU HENGHAO INVESTMENT CO. LIMITED, priority 2018, dated 2022).

In one experiment the test system is fibrosarcoma cell line HT1080. As to the kind of experiment: Ferroptosis screening model (MTT method), Erastin-induced ferroptosis. In kind it is cell-based, human. Conditions: HT1080, ferroptosis inducer Erastin, 72 h, average of three tests, read-out: EC50. On the procedure:
The screening model for ferroptosis mainly used MTT method. First, the fibrosarcoma cell line HT1080 was cultured in a dish, and the cells in the logarithmic growth phase were inoculated into a 96-well plate in a certain number (3000-10000 cells/well), 100 μL per well, and then the plate was put in an 5% CO2 incubator at 37° C., to allow the cells to adhere. After 24 h, 100 μL compound solution at a certain concentration prepared in the designated medium and ferroptosis inducer Erastin (with a final concentration of […]) were added, setting 3 replicate wells for each compound to ensure the accuracy of the results, and a negative control group, a positive control group (Fer-15 μM), a blank control group and a solvent control group were included. After addition of drugs, the plate was placed in an incubator and cultivated for 72 h. On the day of MTT experiment, MTT test solution (5 mg/mL MTT solution dissolved in physiological saline, and stored in the dark at 4° C.) was pre-prepared and 20 μL MTT solution was added to each well, then the plate was put in an incubator and continued to incubate for 2-4 h. After that, 50 μL of 20% SDS solution (dissolved in MiliiQ water, added with 1% concentrated hydrochloric acid) was added to each well and kept in an incubator overnight. On the next day, the absorbance at 570 nm was measured with a microplate reader, to calculate the inhibition rate of drugs on ferroptosis. Generally, the absorbance value of the control group should be in the range of 0.8-1.2 as a normal value.
GraphPadPrism5 software was used to fit the change curve of inhibition rate and calculate the EC50.
Broadly, the EC50 is the concentration giving half of the maximal effect. In the case of `CCOC(=O)c1ccc(NC2CCCCC2)c(N)c1` [Fer-1, Ferrostatin-1, reference compound], the EC50 worked out at 60 nM.

On to `CC(c1ccc2c(c1)Nc1ccccc1S2)S(=O)(=O)N1CC[C@H](CNC(=O)OC(C)(C)C)C1` (stereo partly drawn) [Compound C33, t-butyl (((3R)-1-((1-(10H-phenothiazin-2-yl)ethyl)sulfonyl)pyrrolin-3-yl)methyl)carbamate], for which the EC50 is 327 nM.

`C=C(c1ccc(C(=O)N2CCOCC2)cc1)c1ccc2c(c1)Nc1ccccc1S2` [Compound B47, (4-(1-(10H-phenothiazin-2-yl)ethenyl)phenyl)(morpholine)ketone]: the half-maximal effective concentration (EC50) came out at 24 nM.

As to `CC(c1ccccc1)c1ccc2c(c1)Nc1ccccc1S2` (centres unmarked) [Compound A1, 2-(1-phenylethyl)-10H-phenothiazine], the EC50 is 3 nM.

The experiment is the same for the next values; noted with them: Homo sapiens, HT-1080, 72 h, HT1080, ferroptosis inducer Erastin, 72 h, average of three tests, read-out: EC50.
For `C=C(c1cccc(C(C)C)c1)c1ccc2c(c1)Nc1ccccc1S2` [Compound B27, 2-(1-(3-isopropylphenyl)ethenyl)-10H-phenothiazine], the EC50 worked out at 38 nM.

For the compound `C=C(c1ccc(S(=O)(=O)NC2CCOCC2)cc1)c1ccc2c(c1)Nc1ccccc1S2` [Compound B52, 4-(1-(10H-phenothiazin-2-yl)ethenyl)-N-(tetrahydro-2H-pyran-4-yl)benzenesulfonamide], the EC50 is 11 nM.

Consider `C=C(c1ccc2c(c1)Nc1ccccc1S2)c1ccccc1N` [Compound B16, 2-(1-(10H-phenothiazin-2-yl)ethenyl)phenylamine], for which the EC50 came out at 29 nM.

Take `CC(c1ccc(C#N)cc1)c1ccc2c(c1)Nc1ccccc1S2` (centres unmarked) [Compound A22, 4-(1-(10H-phenothiazin-2-yl)ethyl)benzonitrile]: the EC50 stood at 6 nM.

Consider `CC(c1cccc(Cl)c1)c1ccc2c(c1)Nc1ccccc1S2` (centres unmarked) [Compound A3, 2-(1-(3-chlorophenyl)ethyl)-10H-phenothiazine], for which the EC50 came out at 5 nM.

For the compound `CCc1ccc(C(C)c2ccc3c(c2)Nc2ccccc2S3)cc1` (centres unmarked) [Compound A24, 2-(1-(4-ethylphenyl)ethyl)-10H-phenothiazine], the EC50 turned out to be 20 nM.

Turning to `CC(c1ccc(C(F)(F)F)cc1)c1ccc2c(c1)Nc1ccccc1S2` (centres unmarked) [Compound A21, 2-(1-(4-(trifluoromethyl)phenyl)ethyl)-10H-phenothiazine], the EC50 stood at 6 nM.

Take `CC(c1cccc(I)c1)c1ccc2c(c1)Nc1ccccc1S2` (centres unmarked) [Compound A4, 2-(1-(3-iodophenyl)ethyl)-10H-phenothiazine]: the EC50 worked out at 5 nM.

For `CC(c1cccc(NC(=O)OC(C)(C)C)c1)c1ccc2c(c1)Nc1ccccc1S2` (centres unmarked) [Compound A16, (3-(1-(10H-phenothiazin-2-yl)ethyl)phenyl)carbamic acid t-butyl ester], the EC50 was 49 nM.

Regarding `C=C(c1ccc(C(=O)N2CCN(C)CC2)cc1)c1ccc2c(c1)Nc1ccccc1S2` [Compound B48, (4-(1-(10H-phenothiazin-2-yl)ethenyl)phenyl)(4-methylpiperazin-1-yl)ketone], the EC50 stood at 13 nM.

Turning to `C=C(c1cc(C(C)(C)C)cc(C(C)(C)C)c1)c1ccc2c(c1)Nc1ccccc1S2` [Compound B41, 2-(1-(3,5-di-t-butylphenyl)ethenyl)-10H-phenothiazine], the EC50 is 905 nM.

On to `CC(c1ccc2c(c1)Nc1ccccc1S2)S(=O)(=O)N1CCN(c2ccc(C(F)(F)F)cc2)CC1` (centres unmarked) [Compound C56, 2-(1-((4-(4-(trifluoromethyl)phenyl)piperazin-1-yl)sulfonyl)ethyl)-10H-phenothiazine], for which the EC50 was found to be 213 nM.

As to `C=C(c1ccc2c(c1)Nc1ccccc1S2)c1ccc(C(=O)Nc2ccc(CN3CCN(C)CC3)c(C(F)(F)F)c2)cc1C` [Compound B46, 4-(1-(10H-phenothiazin-2-yl)ethenyl)-3-methyl-N-(4-((4-methylpiperazin-1-yl)methyl)-3-(trifluoromethyl)phenyl)benzamide], the EC50 was 10 nM.

For `C=C(c1ccc(C#N)c(F)c1)c1ccc2c(c1)Nc1ccccc1S2` [Compound B40, 4-(1-(10H-phenothiazin-2-yl)ethenyl)-2-fluorobenzonitrile], the EC50 was 41 nM.

Regarding `CC(c1ccc2c(c1)Nc1ccccc1S2)S(=O)(=O)N1CCC[C@H](NC(=O)OC(C)(C)C)C1` (stereo partly drawn) [Compound C29, t-butyl ((3S)-1-((1-(10H-phenothiazin-2-yl)ethyl)sulfonyl)piperidin-3-yl) carbamate], the 50% effective concentration (EC50) was 228 nM.

With `Cc1ccc(N2CCN(S(=O)(=O)C(C)c3ccc4c(c3)Nc3ccccc3S4)CC2)cc1` (centres unmarked) [Compound C59, 2-(1-((4-(p-methylphenyl)piperazin-1-yl)sulfonyl)ethyl)-10H-phenothiazine], the EC50 was determined as 142 nM.

With `CC(C)Oc1cccc(C(C)c2ccc3c(c2)Nc2ccccc2S3)c1` (centres unmarked) [Compound A12, 2-(1-(3-isopropoxylphenyl)ethyl)-10H-phenothiazine], the EC50 is 15 nM.

With `CCCOc1ccc(C(C)c2ccc3c(c2)Nc2ccccc2S3)cc1` (centres unmarked) [Compound A32, 2-(1-(4-propoxylphenyl)ethyl)-10H-phenothiazine], the EC50 came out at 62 nM.

With `CC(c1ccc2c(c1)Nc1ccccc1S2)C1CCCCC1` (centres unmarked) [Compound A76, 2-(1-cyclohexylethyl)-10H-phenothiazine], the EC50 is 5 nM.

For `CC(c1cccc(N)c1)c1ccc2c(c1)Nc1ccccc1S2` (centres unmarked) [Compound A7, 3-(1-(10H-phenothiazin-2-yl)ethyl)phenylamine], the EC50 came to 1 nM.

As to `CC(c1ccc(F)cc1)c1ccc2c(c1)Nc1ccccc1S2` (centres unmarked) [Compound A19, 2-(1-(4-fluorophenyl)ethyl)-10H-phenothiazine], the EC50 came out at 6 nM.

In the case of `CC(c1ccc2c(c1)CCO2)c1ccc2c(c1)Nc1ccccc1S2` (centres unmarked) [Compound A72, 2-(1-(2,3-dihydrobenzofuran-5-yl)ethyl)-10H-phenothiazine], the EC50 was determined as 14 nM.

With `CC(c1ccc(Cl)cc1)c1ccc2c(c1)Nc1ccccc1S2` (centres unmarked) [Compound A20, 2-(1-(4-chlorophenyl)ethyl)-10H-phenothiazine], the EC50 was determined as 15 nM.

For `CC(c1ccc2c(c1)Nc1ccccc1S2)S(=O)(=O)N1CCN(c2ccc(C#N)cc2)CC1` (centres unmarked) [Compound C53, 4-(4-((1-(10H-phenothiazin-2-yl)ethyl)sulfonyl)piperazin-1-yl)benzonitrile], the EC50 was 182 nM.

Turning to `C=C(c1cccc(OC)c1)c1ccc2c(c1)Nc1ccccc1S2` [Compound B21, 2-(1-(3-methoxylphenyl)ethenyl)-10H-phenothiazine], the EC50 worked out at 11 nM.

`C=C(c1ccc2c(c1)Nc1ccccc1S2)c1ccc(OC)c(OC)c1` [Compound B39, 2-(1-(3,4-dimethoxylphenyl)ethenyl)-10H-phenothiazine]: the EC50 was found to be 23 nM.

On to `CC(c1cccc(O)c1)c1ccc2c(c1)Nc1ccccc1S2` (centres unmarked) [Compound A6, 3-(1-(10H-phenothiazin-2-yl)ethyl)phenol], for which the EC50 stood at 5 nM.

Turning to `CC(c1ccc(OCc2ccccc2)cc1)c1ccc2c(c1)Nc1ccccc1S2` (centres unmarked) [Compound A35, 2-(1-(4-(benzyloxyl)phenyl)ethyl)-10H-phenothiazine], the EC50 turned out to be 14 nM.

As for `C=C(c1ccc(OC(F)(F)F)cc1)c1ccc2c(c1)Nc1ccccc1S2` [Compound B5, 2-(1-(4-trifluoromethoxylphenyl)ethenyl)-10H-phenothiazine], the EC50 is 80 nM.

`CC(c1ccc2c(c1)Nc1ccccc1S2)S(=O)(=O)N1CCN(NC(=O)OC(C)(C)C)CC1` (centres unmarked) [Compound C27, t-butyl 4-((1-(10H-phenothiazin-2-yl)ethyl)sulfonyl)piperazin-1-carbamate]: the EC50 was 256 nM.

As to `C=C(c1cccc(OC(F)(F)F)c1)c1ccc2c(c1)Nc1ccccc1S2` [Compound B22, 2-(1-(3-trifluoromethoxylphenyl)ethenyl)-10H-phenothiazine], the EC50 is 30 nM.

Regarding `CCc1cccc(C(C)c2ccc3c(c2)Nc2ccccc2S3)c1` (centres unmarked) [Compound A9, 2-(1-(3-ethylphenyl)ethyl)-10H-phenothiazine], the EC50 worked out at 18 nM.

For the compound `C=C(c1cccc(C(=O)OCC)c1)c1ccc2c(c1)Nc1ccccc1S2` [Compound B28, ethyl3-(1-(10H-phenothiazin-2-yl)ethenyl)benzoic acid], the EC50 came out at 27 nM.

Consider `COc1ccc2cc(C(C)c3ccc4c(c3)Nc3ccccc3S4)ccc2c1` (centres unmarked) [Compound A69, 2-(1-(6-methoxylnaphthalen-2-yl)ethyl)-10H-phenothiazine], for which the EC50 came to 3 nM.

On to `COC(=O)c1ccc(C(C)c2ccc3c(c2)Nc2ccccc2S3)cc1Cl` (centres unmarked) [Compound A53, 4-(1-(10H-phenothiazin-2-yl)ethyl)-2-chlorobenzoic acid methyl ester], for which the EC50 was 20 nM.

Take `CCOC(=O)C1CCN(S(=O)(=O)C(C)c2ccc3c(c2)Nc2ccccc2S3)CC1` (centres unmarked) [Compound C23]: the EC50 was 620 nM.

The same experiment, now with this note: Homo sapiens, HT-1080, HT1080, ferroptosis inducer Erastin, 72 h, average of three tests, read-out: EC50.
As for `C=C(c1ccc2c(c1)Nc1ccccc1S2)c1cc(OC)c(OC)c(OC)c1` [Compound B42, 2-(1-(3,4,5-trimethoxylphenyl)ethenyl)-10H-phenothiazine], the EC50 amounted to 45 nM.
